In PubChem BioAssay AID624367 (Broad Institute, 2012) one finds AC35 and activity change, negative = cytotoxicity data, which are given here for 28 compounds.

The source made the active and inactive calls. How the calls were made is not given here.

The first experiment has as its system Lymphoblastoid cell line (LCL) cytotoxicity, plate reader. In words: viability loss in LCL cells – cell-based, plate reader, dry powder, set 2, cytotoxicity control, dose response (AID 624367).
Conditions: not given
Regarding `O=C(C[C@H]1C[C@@H]2c3cc(NS(=O)(=O)c4ccc(F)cc4)ccc3O[C@@H]2[C@@H](CO)O1)NCc1ccc(Oc2ccccc2)cc1`, the AC35 is 34.7 µM.
For `O=C(C[C@@H]1C[C@@H]2c3cc(NC(=O)c4ccc5c(c4)OCO5)ccc3O[C@@H]2[C@@H](CO)O1)NCc1ccc(Oc2ccccc2)cc1`, the AC35 was 16 µM.
Take `O=C(C[C@H]1C[C@H]2c3cc(NC(=O)c4ccc5c(c4)OCO5)ccc3O[C@H]2[C@H](CO)O1)NCc1ccc(Oc2ccccc2)cc1`: the AC35 is 33.8 µM.
For the compound `O=C(C[C@@H]1C[C@@H]2c3cc(NS(=O)(=O)c4ccc(F)cc4)ccc3O[C@@H]2[C@@H](CO)O1)NCc1ccc(Oc2ccccc2)cc1`, the AC35 was 22.2 µM.
Turning to `O=C(Nc1ccc(C(F)(F)F)cc1)Nc1ccc2c(c1)[C@@H]1C[C@H](CC(=O)N3CCc4ccccc4C3)O[C@H](CO)[C@@H]1O2`, the AC35 is 36.7 µM.
As to `CN(C)c1ccc2c(c1)[C@@H]1C[C@H](CC(=O)NCc3ccc(Oc4ccccc4)cc3)O[C@@H](CO)[C@@H]1O2`, the AC35 was 30.4 µM.

Test system in another experiment: not listed separately
The description is as above. The following applies: Lymphoblastoid cell line (LCL) cytotoxicity, plate reader; at 30 µM (top of the series).
Take `CN(C)C(=O)c1cccc(-c2cccc(-c3nc(C(=O)NCc4ccccc4)cc4c3[C@@H](CCO)N([S@](=O)C(C)(C)C)C4)c2)c1`: the activity change, negative = cytotoxicity is 8.17% (inactive).

Still in this experiment, the particulars now being: Lymphoblastoid cell line (LCL) cytotoxicity, plate reader; at 35 µM (top of the series).
For the compound `O=C(Cc1ccccn1)NCC[C@@H]1CC[C@@H](NC(=O)Nc2ccc(Cl)cc2)[C@@H](CO)O1`, the activity change, negative = cytotoxicity is 1.2% (inactive).
Take `Cc1noc(C)c1S(=O)(=O)Nc1ccc2c(c1)C(=O)N([C@H](C)CO)C[C@H](C)[C@@H](CN(C)Cc1ccc(C(F)(F)F)cc1)OCCCC[C@H](C)O2`: the activity change, negative = cytotoxicity was -4.42% (inactive).
In the case of `CC(C)NC(=O)N1[C@H](CO)[C@H](c2ccc(C#CC3CCCCC3)cc2)[C@@H]1C#N`, the activity change, negative = cytotoxicity was -1.32% (inactive).
In the case of `CC(C)(C)[S@@](=O)N1Cc2cc(C(=O)NCc3ccccn3)nc(-c3cccc(-c4ccccc4F)c3)c2[C@H]1CCO`, the activity change, negative = cytotoxicity was -1.27% (inactive).
Still for that read-out and setting: then `COc1ccc(S(=O)(=O)N(C)C[C@H]2Oc3ncc(/C=C/c4ccccc4)cc3C(=O)N([C@H](C)CO)C[C@@H]2C)cc1`, with 7.14% (inactive); and `CC(C)c1ccc(NC(=O)C[C@H]2CC[C@H]3[C@@H](COc4ccc(NC(=O)Nc5ccc(F)c(F)c5)cc4C(=O)N3C)O2)cc1`, with -0.979% (inactive); and `Cc1noc(C)c1S(=O)(=O)Nc1ccc2c(c1)C(=O)N([C@H](C)CO)C[C@@H](C)[C@@H](CN(C)Cc1ccc(C(F)(F)F)cc1)OCCCC[C@@H](C)O2`, with 1.01% (inactive).
On the same count and under the same terms, then `COc1ccccc1CNC(=O)C[C@H]1C[C@@H]2c3cc(NC(=O)CN(C)C)ccc3O[C@@H]2[C@@H](CO)O1`, with 2.15% (inactive); and `C[C@@H]1CN([C@@H](C)CO)C(=O)c2c(c3ccccc3n2C)-c2ccccc2CO[C@H]1CN(C)C(=O)Nc1ccc(F)cc1`, with 3.34% (inactive).
Still for that read-out and setting: the same measure for `O=C(C[C@@H]1C[C@@H]2c3cc(NC(=O)c4cccnc4)ccc3O[C@@H]2[C@H](CO)O1)NCC(F)(F)F`: -0.745% (inactive).
As to `Cc1noc(C)c1S(=O)(=O)Nc1ccc2c(c1)C(=O)N([C@H](C)CO)C[C@@H](C)[C@H](CN(C)Cc1ccc(C(F)(F)F)cc1)OCCCC[C@@H](C)O2`, the activity change, negative = cytotoxicity was -9.24% (inactive).
With `C[C@@H]1CN([C@H](C)CO)C(=O)c2c(c3ccccc3n2C)-c2ccccc2CO[C@H]1CN(C)C(=O)Nc1ccc(F)cc1`, the activity change, negative = cytotoxicity is 1.26% (inactive).
In the case of `CS(=O)(=O)Nc1ccc2c(c1)[C@H]1C[C@@H](CC(=O)NCC3CC3)O[C@@H](CO)[C@H]1O2`, the activity change, negative = cytotoxicity was -1.05% (inactive).
Still for that read-out and setting: then `C[C@@H]1CN([C@@H](C)CO)S(=O)(=O)c2ccc(C#Cc3ccncc3)cc2O[C@H]1CN(C)C(=O)Nc1ccc2c(c1)OCO2`, with -1.7% (inactive); and `C[C@@H]1CN([C@H](C)CO)C(=O)c2c(c3ccccc3n2C)-c2ccccc2CO[C@@H]1CN(C)C(=O)Nc1ccc(F)cc1`, with -1.38% (inactive); and `COc1ccc(NC(=O)N(C)C[C@@H]2Oc3cc(C#CCC(C)C)ccc3S(=O)(=O)N([C@@H](C)CO)C[C@@H]2C)cc1`, with -0.055% (inactive).
The same measure, in the same setting: the same measure for `Cc1noc(C)c1S(=O)(=O)Nc1ccc2c(c1)C(=O)N([C@H](C)CO)C[C@@H](C)[C@H](CN(C)Cc1ccc(C(F)(F)F)cc1)OCCCC[C@H](C)O2`: -6.93% (inactive); for `C[C@H](CO)N1C[C@H](C)[C@H](CN(C)Cc2ccc(C(F)(F)F)cc2)Oc2ccc(NC(=O)Cc3ccccc3)cc2CC1=O`: 3.51% (inactive); for `C[C@H]1CN([C@@H](C)CO)C(=O)Cc2cc(NC(=O)Cc3ccccc3)ccc2O[C@@H]1CN(C)Cc1ccc(C(F)(F)F)cc1`: -5.68% (inactive).
On the same count and under the same terms, the same measure for `CN(C)c1ccc2c(c1)[C@@H]1C[C@@H](CC(=O)NCc3ccc(Oc4ccccc4)cc3)O[C@@H](CO)[C@@H]1O2`: 8.56% (inactive).
Take `C[C@@H]1CN([C@@H](C)CO)C(=O)Cc2cc(NC(=O)Cc3ccccc3)ccc2O[C@H]1CN(C)Cc1ccc(C(F)(F)F)cc1`: the activity change, negative = cytotoxicity is -7.42% (inactive).
